BindingDB's records for doi:10.1074/jbc.M705416200 (University Würzburg, 2007)
pIC50: −log10 of the molar value. Peptide text beside a SMILES is read from it.

Experiment: Inhibition of human SGLT1 expressed in xenopus laevis oocyte assessed as inhibition of methyl-alpha-D-[14C]glucopyranoside uptake after 1 hrs

Row | Structure (SMILES) | pIC50
1 | NC(=O)CC[C@H](N)C(=O)N[C@@H](CO)C(=O)N1CCC[C@H]1C(=O)O [(S)-1-((S)-2-((S)-2,5-diamino-5-oxopentanamido)-3-hydroxypropanoyl)pyrrolidine-2-carboxylic acid] (H-Gln-Ser-Pro-OH) | 9.80
2 | NC(=O)CC[C@H](N)C(=O)N[C@@H](CS)C(=O)N1CCC[C@H]1C(=O)O [QCP] (H-Gln-Cys-Pro-OH) | 8.68
3 | CC(=O)N1CCC[C@H]1C(=O)N[C@@H](CO)C(=O)N[C@@H](CCC(N)=O)C(=O)O [QSPac] (Ac-Pro-Ser-Gln-OH) | 9.77
